# According to US9895375B2, “Compositions containing riboflavin and sesamin-class compounds” (SUNTORY HOLDINGS LIMITED, priority 2006, dated 2018):
# Legend:
# Wistar male rats = assay: acetic acid writhing test; assay type: in vivo
# Protocol: A test on analgesic action was conducted by a partly modified version of the acetic acid writhing test of Moon et. al. (Biol. Pharm. Bull. (2005)). The specific test method was as follows. […] Three days before the acetic acid writhing test, the rats were divided into three groups each consisting of 6 heads; the control group was orally administered through a tube with olive oil at a dose of 5 ml/kg whereas the remaining two groups were administered with sesamin-class compounds (sesamin/episesamin mixture; sesamin: episesamin (weight ratio)=5:5) as they were dissolved in olive oil at respective doses of 50 mg/kg and 100 mg/kg. Subsequently, administration was similarly performed two days before the test and on the day before the test, two administrations were effected, one in the morning and the other in the evening; thus, a total of four administrations were effected. On the day of testing, rats that had been fasted overnight from the previous night were orally administered with 5 ml/kg of physiological saline and one hour later, they were administered intraperitoneally with 1 ml/170 g of physiological saline containing 1% acetic acid and immediately after this administration, the number of writhing movements the animals made for 30 minutes right after the administration was counted. […]
# [1] = ingested in high doses; cited from earlier work
# male Balb/b mice = assay: water immersion sleep deprivation test (weighted swimming time); assay type: in vivo; conditions: Example 3, FIG. 4; riboflavin 25 or 50 mg/kg (riboflavin equivalent), sesamin 50 mg/kg, p.o. once a day for 2 days of water immersion
# Protocol: That is, by measuring the swimming time in a water-immersion sleep deprivation test. A mouse, kept in such an environment as water immersion that they are unable to have a sufficient sleep or resting position to rest physically or mentally, is forced to swim under the stress of a weight and the time it takes to have its nose submerged in the water for at least 10 seconds is measured to determine the degree of its fatigue. Since this animal model is a physical and mental fatigue model, if the administration of a test substance prolongs the swimming time, it is confirmed that the model has resistance to fatigue, as exemplified by prevention or amelioration of physical and mental fatigue and the accompanying distress such as muscular pain, an increase in physical strength that helps prolong the time to exhaustion, and maintenance of physical vigor in a fatigued state.
# The effect against fatigue was evaluated by a water immersion sleep deprivation test. […]
# After two days of water immersion, the mice were allowed to swim with a weight attached to each of their tails having a mass equivalent to 8% of their body weight, and the time they took to have their nose submerged in water for at least 10 seconds was measured.
# The anti-fatigue action due to riboflavin and a sesamin-class compound(s) was measured as in Example 3, except that the mice were divided into six groups as shown in Table 2.
# [2] = perorally, 1 to 50 mg/kg; no further rise up to 75 mg; cited from earlier work
# [3] = intraperitoneally, 3 to 100 mg/kg; cited from earlier work
smiles,measurement,setting,value
"Cc1cc2nc3c(=O)[nH]c(=O)nc-3n(C[C@H](O)[C@H](O)[C@H](O)COP(=O)(O)O)c2cc1C [riboflavin, riboflavin sodium phosphate]",number of writhing movements versus control group (Olive+Saline),"Wistar male rats; Example 1, FIG. 2, vitamin B2 30 mg/kg riboflavin equivalent p.o. alone",tendency to make a smaller number of writhing movements than the control group
same,suppression of number of writhing movements compared with control group (Olive+Saline),"Wistar male rats; Example 2, FIG. 3, vitamin B2 30 mg/kg riboflavin equivalent p.o., sesamin-class compounds 100 mg/kg p.o. x4 in the combination",10.5%
same,migraine prophylaxis,[1],effective for migraine prophylaxis
same,suppression of the shortening of the swimming time (anti-fatigue action),male Balb/b mice,suppressed in the shortening of the swimming time
same,analgesic effect in a formaldehyde test,[2],peaked at 25 mg
same,analgesic action against inflammatory pain,[3],showed an analgesic action against inflammatory pain in a dose-dependent fashion
same,effect against pain in the nervous system,[3],ineffective
